From US7252957B2, “Identification of etiology of autism” (Immunosciences Lab., Inc., priority 2004, dated 2007)

Key:
CD69 = target: T1, CD69 (Homo sapiens, UniProt Q07108); experiment: ELISA: binding of gliadin, casein peptides, SK and ethyl mercury to CD69 (inhibition of anti-CD69 binding); settings: for % Binding of Gliadin, Casein, Streptokinase, or Mercury to CD26 and CD69: CD69 coated wells, % inhibition of anti-CD69 binding to CD69; for ELISA O.D. at 492 nm: microwell coated with CD69 + competing antigen, peroxidase labeled rabbit anti-CD69
T1 construct: purchased Bio-Synthesis Inc. (Lewisville, Tex.); host or cells: chemical synthesis
Protocol: (§1) Plates were incubated for one hour at 37° C. and washed five times for removal of unbound competing antigens. […] After proper incubation and washing, binding of these peptides and proteins to CD26 and CD69 was measured by addition of peroxidase substrate and measurement of color development at 492 nm.

CD26 = experiment: ELISA: binding of gliadin, casein peptides, SK and ethyl mercury to CD26 (inhibition of anti-CD26 binding); settings: for % Binding of Gliadin, Casein, Streptokinase, or Mercury to CD26 and CD69: CD26 coated wells, % inhibition in binding of anti-CD26 to CD26; for ELISA O.D. at 492 nm: microwell coated with CD26 + competing antigen, peroxidase labeled rabbit anti-CD26
Protocol: as §1

[1] = target: CD69 antibody binding epitope … (human); experiment: competition ELISA, CD69-coated wells, read with peroxidase labeled rabbit anti-CD69

## streptokinase [SK]
CD69
  % Binding of Gliadin, Casein, Streptokinase, or Mercury to CD26 and CD69: 86%
  ELISA O.D. at 492 nm: 0.48 O.D.
CD26
  % Binding of Gliadin, Casein, Streptokinase, or Mercury to CD26 and CD69: 77%
  ELISA O.D. at 492 nm: 0.72 O.D.

## Casein
CD69
  % Binding of Gliadin, Casein, Streptokinase, or Mercury to CD26 and CD69: 28%
  ELISA O.D. at 492 nm: 1.45 O.D.
CD26
  % Binding of Gliadin, Casein, Streptokinase, or Mercury to CD26 and CD69: 44%
  ELISA O.D. at 492 nm: 1.34 O.D.

B1: Streptokinase (SK), P00779 27-440 (protein)
chain: IAGPEWLLDRPSVNNSQLVVSVAGTVEGTNQDISLKFFEIDLTSRPAHGGKTEQGLSPKSKPFATDSGAMSHKLEKADLLKAIQEQLIANVHSNDDYFEVIDFASDATITDRNGKVYFADKDGSVTLPTQPVQEFLLSGHVRVRPYKEKPIQNQAKSVDVEYTVQFTPLNPDDDFRPGLKDTKLLKTLAIGDTITSQELLAQAQSILNKNHPGYTIYERDSSIVTHDNDIFRTILPMDQEFTYRVKNREQAYRINKKSGLNEEINNTDLISEKYYVLKKGEKPYDPFDRSHLKLFTIKYVDVDTNELLKSEQLLTASERNLDFRDLYDPRDKAKLLYNNLDAFGIMDYTLTGKVEDNHDDTNRIITVYMGKRPEGENASYHLAYDKDRYTEEEREVYSYLRYTGTPIPDNPNDK
[1]
  % Binding of Gliadin, Casein, Streptokinase, or Mercury to CD26 and CD69 (% inhibition of anti-CD69 binding): 86%
